# Experimental data taken from patent US6159501A, “Modified release multiple-units dosage composition for release of opioid compounds” (Nycomed Danmark A/S, priority 1996, dated 2000).
# Experiments:
# [1] = cited from earlier work
# [2] = Test 3 (PDMO-018): adverse events
# Protocol: Volunteers were asked to report any changes in normal health to the investigator. The investigator recorded in the CRFs the event, date and time for onset and cessation, frequency, severity, outcome, causality, classification and any action taken.
# Further a urine sample was screened for drug abuse and pregnancy test was performed for female volunteers. If negative drugs of abuse and pregnancy test the volunteers were challenged in the first period only with a direct i.v. injection of about 0.5 ml naloxone 0.4 mg/ml (Narcan®).
structure (smiles),measurement,setting,value
CN1CC[C@]23c4c5ccc(O)c4O[C@H]2[C@@H](O[C@@H]2O[C@H](C(=O)O)[C@@H](O)[C@H](O)[C@H]2O)C=C[C@H]3[C@H]1C5 [morphine-6-glucuronide],"half-life, comparison",[1]; in vivo,longer half-life
O=C1CC[C@@]2(O)[C@H]3Cc4ccc(O)c5c4[C@@]2(CCN3CC2CC2)[C@H]1O5 [naltrexone],adverse events (number),[2],13 AEs
CN1CC[C@]23c4c5ccc(O)c4O[C@H]2[C@@H](O)C=C[C@H]3[C@H]1C5 [morphine],average duration of action for the first single dose,"[1]; 10 mg of oral, i.m. or s.c. morphine",4 to 5 h
